pEC50, pIC50, pKi: −log10 of the molar value. Structures can show the parent of a compound that is named as a salt.
Experiments:
[1] = tested on: HUVEC tube formation; assay: Matrigel tube formation assay; type: cell-based, human
Description: HUVEC (Clonetics) were plated in 96 well plates in EGM-2 media (Clonetics) at 2.5 to 3×10^4 cells per well. Cells of less than 6 passages were used in all studies. Wells were precoated with 50 μL growth factor containing Matrigel (Becton Dickinson). HUVEC were allowed to form tubes by incubation at 37° C. in 5% CO2 for 22 hrs. In test wells compound was added in the desired concentration. Photographic images of the wells ×4 magnification were used to determine size of the tubes, length of tubes and number of junctions using image analysis software.

[2] = Solubility of salts of compound 1; type: physicochemical; conditions: for Solubility in Water: overnight
[3] = biological target: T1, SSTR-1 (Homo sapiens, UniProt P30872); assay: Radioligand binding screen against somatostatin subtype SSTR-1; conditions: Table 8; read-out: Ki SSTR1
T1 construct: expressed in transfected cells
Description: (§1) Receptor membrane preparations containing the desired cloned receptor (for example cloned human somatostatin receptor subtype 5, SSTR5) and radio-labeled ligand (for example 3-[^125I]iodotyrosyl^11 Somatostatin-14)) were diluted at the concentration required for testing and according to the specific parameters associated with the selected receptor-ligand combination, including receptor Bmax, ligand Kd and any other parameters necessary to optimize the experimental conditions. When tested for competition activity to the reference ligand, “compound 1” was mixed with membrane suspension and the radiolabeled reference ligand (with or without an excess of cold ligand to the receptor for determination of non-specific binding) and incubated at the temperature required by internal standard operating procedures. Following incubation, the binding reaction was stopped by the addition of ice-cold washing buffer and filtered on appropriate filters, which are then counted. Data analysis and curve-fitting was performed with XLfit (IDBS).
(§2) 10 mM solutions of test compounds in 100% DMSO were prepared. ˜160 μl was used for each dilution (20 μl/well in triplicate).
(§3) A 1.25 mM assay stock was prepared by making a 1:8 dilution of the 10 mM solution. (To 30 μL of the 10 mM solution was added 210 μL milli-Q H2O. A 1:5 dilution series in milli-Q H2O was then prepared.
(§4) In primary screening experiments compounds were tested in duplicate for a particular concentration.

[4] = biological target: T2, SSTR-2 (Homo sapiens, UniProt P30874); assay: Radioligand binding screen against somatostatin subtype SSTR-2; conditions: Table 8; for pKi: read-out: Ki SSTR2
T2 construct: expressed in transfected cells
Description: as §1, §2, §3, §4

[5] = biological target: T3, SSTR-3 (Homo sapiens, UniProt P32745); assay: Radioligand binding screen against somatostatin subtype SSTR-3; conditions: Table 8; for pKi: read-out: Ki SSTR3; for pIC50: shown where Ki could not be determined (NoModel), read-out: IC50 SSTR3 (in parentheses)
T3 construct: expressed in transfected cells
Description: as §1, §2, §3, §4

[6] = biological target: T4, SSTR-4 (Homo sapiens, UniProt P31391); assay: Radioligand binding screen against somatostatin subtype SSTR-4 (SST4 assay); conditions: Table 8; read-out: Ki SSTR4
T4 construct: expressed in transfected cells
Description: as §1, §2, §3
Assays were performed in triplicate at each concentration within the 1:5 dilution series: 250 μM, 50 μM, 10 μM, […], 0.4 μM, 0.08 μM, 0.016 μM, 0.0032 μM, etc. (for SST4 assay) and 125 μM, 10 μM, 2 μM, 1 μM, 0.5 μM, etc (for SST5 assay).
as §4

[7] = biological target: T5, Human SST5 somatostatin receptor (SSTR5) (Homo sapiens, UniProt P35346); assay: Filter plate assay for SST5 receptor, displacement of [125I]SST-14; type: binding; conditions: Table 8; for pIC50: shown where Ki could not be determined (NoModel), read-out: IC50 SSTR5 (in parentheses)
T5 construct: expressed in transfected cells; host or cells: HEK-293 EBNA
How it was run: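 HEK-293 EBNA membranes expressing human SST5 (5.5 μg) incubated 60 min at 25 °C with 4 nM [125I]SST-14 and compound in pH 7.5 Tris/EGTA/MgCl2/sucrose buffer. Bound radioactivity collected on PEI-coated glass fiber filters and counted; triplicate 1:5 dilution series from 125 μM, non-specific binding with excess cold ligand.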

[8] = tested on: Human Umbilical Vein Endothelial Cells (HUVEC); assay: Endothelial cell proliferation assay (MTS); type: cell-based; conditions: 48 hrs
Description: Human Umbilical Vein Endothelial Cells (HUVEC from Clonetics) were plated in 96 well plates at 1000 cell per well in EGM-2 medium (Clonetics). Cells were grown overnight at 37° C. in 5% CO2. Fresh EGM-2 medium containing compound at the desired concentration was added to the wells and the cells allowed to grow for a further 48 hrs. A MTS (Promega) colorimetric assay was performed after 48 hrs to determine cell growth according to the manufacturers instructions. Results are presented in terms of percentage growth.

[9] = 22 hrs, 50% inhibition of tube formation

T4 sequence (P31391 whole entry): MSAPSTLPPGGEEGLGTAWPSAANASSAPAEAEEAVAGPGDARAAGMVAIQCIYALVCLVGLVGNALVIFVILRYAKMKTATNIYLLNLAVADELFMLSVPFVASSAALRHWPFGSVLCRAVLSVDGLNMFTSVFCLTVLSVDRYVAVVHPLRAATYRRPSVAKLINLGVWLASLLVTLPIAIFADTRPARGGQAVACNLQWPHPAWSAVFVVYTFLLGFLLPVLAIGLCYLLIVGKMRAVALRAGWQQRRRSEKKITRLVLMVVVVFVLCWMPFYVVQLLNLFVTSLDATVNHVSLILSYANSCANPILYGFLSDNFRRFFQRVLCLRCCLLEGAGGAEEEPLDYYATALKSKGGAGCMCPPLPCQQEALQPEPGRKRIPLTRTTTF
T2 sequence (P30874 whole entry): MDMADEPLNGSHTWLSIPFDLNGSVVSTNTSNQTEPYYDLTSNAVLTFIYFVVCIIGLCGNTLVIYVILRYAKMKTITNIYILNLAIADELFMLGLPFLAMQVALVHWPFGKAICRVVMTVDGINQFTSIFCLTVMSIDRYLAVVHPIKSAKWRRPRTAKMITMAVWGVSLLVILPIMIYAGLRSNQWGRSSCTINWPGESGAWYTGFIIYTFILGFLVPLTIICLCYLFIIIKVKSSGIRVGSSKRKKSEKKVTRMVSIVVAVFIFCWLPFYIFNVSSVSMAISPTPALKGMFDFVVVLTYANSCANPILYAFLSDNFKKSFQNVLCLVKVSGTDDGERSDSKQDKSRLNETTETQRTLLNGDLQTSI
T3 sequence (P32745 whole entry): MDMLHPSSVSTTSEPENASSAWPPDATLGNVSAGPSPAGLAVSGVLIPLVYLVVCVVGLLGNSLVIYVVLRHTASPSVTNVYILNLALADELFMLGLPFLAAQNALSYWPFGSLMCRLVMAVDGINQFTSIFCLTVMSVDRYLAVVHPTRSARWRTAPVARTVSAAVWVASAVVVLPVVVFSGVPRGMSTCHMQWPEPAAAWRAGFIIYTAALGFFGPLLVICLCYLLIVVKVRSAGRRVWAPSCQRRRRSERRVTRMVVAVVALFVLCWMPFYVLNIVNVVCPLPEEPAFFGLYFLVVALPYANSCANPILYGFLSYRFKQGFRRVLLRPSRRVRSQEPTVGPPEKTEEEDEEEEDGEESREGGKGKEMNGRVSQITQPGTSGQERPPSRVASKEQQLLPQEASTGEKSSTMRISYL
T5 sequence (P35346 whole entry): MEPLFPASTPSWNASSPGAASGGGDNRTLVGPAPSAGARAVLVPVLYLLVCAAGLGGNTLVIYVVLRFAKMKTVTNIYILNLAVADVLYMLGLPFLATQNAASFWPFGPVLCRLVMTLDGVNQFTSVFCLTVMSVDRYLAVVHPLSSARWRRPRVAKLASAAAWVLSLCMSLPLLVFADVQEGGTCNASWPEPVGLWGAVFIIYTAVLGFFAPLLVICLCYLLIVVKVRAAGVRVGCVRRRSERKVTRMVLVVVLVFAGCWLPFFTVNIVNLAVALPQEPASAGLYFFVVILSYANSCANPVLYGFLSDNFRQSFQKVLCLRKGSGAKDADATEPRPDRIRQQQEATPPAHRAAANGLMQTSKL
T1 sequence (P30872 whole entry, species assumed): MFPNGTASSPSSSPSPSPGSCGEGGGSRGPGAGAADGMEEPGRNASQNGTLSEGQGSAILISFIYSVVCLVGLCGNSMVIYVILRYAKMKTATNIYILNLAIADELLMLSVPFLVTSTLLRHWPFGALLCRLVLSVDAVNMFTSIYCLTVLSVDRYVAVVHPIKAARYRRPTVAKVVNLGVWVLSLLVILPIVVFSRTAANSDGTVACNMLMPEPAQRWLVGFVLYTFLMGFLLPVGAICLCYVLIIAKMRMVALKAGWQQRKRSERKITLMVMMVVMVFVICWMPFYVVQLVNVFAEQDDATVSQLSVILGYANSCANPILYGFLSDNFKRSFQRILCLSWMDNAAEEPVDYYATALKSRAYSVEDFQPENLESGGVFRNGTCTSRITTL

| pKi [3] | pKi [4] | pKi [6] | pKi [7] | Structure (SMILES) | Percent cell growth at 125 µM [8] | Percent cell growth at 250 µM [8] | further results |
| --- | --- | --- | --- | --- | --- | --- | --- |
| 5.43 | 5.91 | 5.34 |  | COC[C@H]1OC(OCc2ccc(Cl)cc2)[C@H](NC(=O)CCN)[C@H](OCc2ccc3ccccc3c2)[C@@H]1O (stereo partly drawn) [Compound 3] | -75% | -39% | pIC50 [5]: 6.90; pIC50 [7]: 6.83 |
| 5.59 | 5.80 | 5.07 | 6.82 | COC[C@H]1OC(OCCc2ccccc2)[C@H](NC(=O)CCN)[C@H](OCc2ccc3ccccc3c2)[C@@H]1O (stereo partly drawn) [Compound 5] | -89% | -57% | pKi [5]: 6.55 |
| < 5.00 |  | < 5.00 | 6.82 | COC[C@H]1OC(OCc2ccc3ccccc3c2)[C@H](NC(=O)CCN)[C@H](OCc2ccccc2)[C@@H]1O (stereo partly drawn) [Compound 6] | 24% | -78% | pIC50 ([4]; shown where Ki could not be determined (NoModel), read-out: IC50 SSTR2 (in parentheses)): 4.53; pIC50 [5]: 6.69 |
| 5.22 | 6.30 | 5.04 | 7.66 | COC[C@H]1OC(OCc2ccc3ccccc3c2)[C@H](NC(=O)CCN)[C@H](OCc2ccc(Cl)cc2)[C@@H]1O (stereo partly drawn) [Compound 7] | -81% | -63% | pKi [5]: 6.88 |
| 5.51 | 5.70 | 5.56 | 6.22 | COC[C@H]1O[C@@H](OCc2ccc3ccccc3c2)[C@H](NC(=O)CCN=C(N)N)[C@H](OCc2ccc3ccccc3c2)[C@@H]1O [Compound 8] | 66% | -18% | pKi [5]: 6.22 |
| < 5.00 | 6.31 | 6.33 |  | CS[C@@H]1O[C@H](COCc2ccc(Cl)cc2)[C@@H](O)[C@@H](OCc2ccc3ccccc3c2)[C@H]1NC(=O)CCN [Compound 9] | -86% | -78% | pIC50 [5]: 9.10; pIC50 [7]: 8.96; pEC50 ([1]; Homo sapiens, 22 h): 4.30 |
| < 5.00 | 6.14 |  | 6.66 | CS[C@@H]1O[C@H](COCc2ccc3ccccc3c2)[C@@H](O)[C@@H](OCc2ccc3ccccc3c2)[C@H]1NC(=O)CCN [Compound 10] | -85% | -63% | pIC50 [5]: 6.64; pEC50 ([1]; Homo sapiens, 22 h): 3.90 |
| 5.04 | 5.31 | 5.40 |  | COC[C@H]1OC(OCc2ccc3ccccc3c2)[C@H](NC(=O)CCCN)[C@@H](OCc2ccc3ccccc3c2)[C@@H]1O (stereo partly drawn) [Compound 11] | 29% | -53% | pIC50 [5]: 8.70; pIC50 [7]: 8.52 |
| 5.71 | 5.98 | 5.65 | 7.14 | COC[C@H]1O[C@H](OCc2ccc3ccccc3c2)[C@H](NC(=O)CCN)[C@H](OCc2ccc3ccccc3c2)[C@@H]1O [Compound 15] | -78% | -67% | pKi [5]: 6.10 |

Further lines, the molecule ahead of its results:

| Structure (SMILES) | pKi [3] | pKi [4] | pKi [6] | pKi [7] | Percent cell growth at 125 µM [8] | Percent cell growth at 250 µM [8] | further results |
| --- | --- | --- | --- | --- | --- | --- | --- |
| COC1C(O)C(COCc2ccc3ccccc3c2)OC(OCc2ccc(Cl)cc2)C1NC(=O)C1CCCN(C(=N)N)C1 (mixture of isomers) [14 mixture] |  |  |  |  |  |  | pEC50 [1, 9]: 3.81 |
| COCC1OC(OCc2ccc(Cl)cc2)C(NC(=O)CCN)C(OCc2ccc3ccccc3c2)C1O (stereo not drawn) [3 alpha] |  |  |  |  |  |  | pEC50 [1, 9]: 4.35 |
| COCC1OC(OCc2ccc(Cl)cc2)C(NC(=O)CCN)C(OCc2ccc3ccccc3c2)C1O (stereo not drawn) [3 beta] |  |  |  |  |  |  | pEC50 [1, 9]: 4.05 |
| COCC1OC(OCc2ccc3ccccc3c2)C(NC(=O)CCN)C(OCc2ccc(Cl)cc2)C1O (stereo not drawn) [7 alpha] |  |  |  |  |  |  | pEC50 [1, 9]: 4.30 |
| COCC1OC(OCc2ccc3ccccc3c2)C(NC(=O)CCN)C(OCc2ccc(Cl)cc2)C1O (stereo not drawn) [7 beta] |  |  |  |  |  |  | pEC50 [1, 9]: 4.02 |
| COCC1OC(OCc2ccc3ccccc3c2)C(NC(=O)CCN)C(OCc2ccc3ccccc3c2)C1O (stereo not drawn) [16 alpha] |  |  |  |  |  |  | pEC50 [1, 9]: 4.26 |
| COC[C@H]1O[C@H](OCCc2ccccc2)[C@H](NC(=O)CCCN)[C@@H](OCc2ccc3ccccc3c2)[C@@H]1O [Acetate] |  |  |  |  |  |  | Solubility in Water [2]: 6960 µg/mL |
| COC[C@H]1O[C@H](OCCc2ccccc2)[C@H](NC(=O)CCCN)[C@@H](OCc2ccc3ccccc3c2)[C@@H]1O [Citrate] |  |  |  |  |  |  | Solubility in Water [2]: 4540 µg/mL |
| COC[C@H]1OC(OCc2ccc(Cl)cc2)[C@H](NC(=O)CCCN=C(N)N)[C@H](OCc2ccc(Cl)cc2)[C@@H]1O (stereo partly drawn) [Compound 2] | 5.64 | 6.14 | 5.49 | 6.45 | -83% | -91% | pKi [5]: 6.69 |
| COC[C@H]1OC(OCc2ccc(Cl)cc2)[C@H](NC(=O)CCCN=C(N)N)[C@H](OCc2ccc3ccccc3c2)[C@@H]1O (stereo partly drawn) [Compound 4] | 5.80 | 6.07 | 5.85 | 6.28 | -98% | -90% | pKi [5]: 6.73 |
| COC[C@H]1O[C@@H](OCc2ccc3ccccc3c2)[C@H](NC(=O)CCCN)[C@@H](OCc2ccc(Cl)cc2)[C@@H]1O [Compound 12] | < 5.00 | 5.30 | < 5.00 | 7.34 | -95% | -71% | pIC50 [5]: 6.37 |
| COC[C@H]1O[C@H](OCc2ccc3ccccc3c2)[C@H](NC(=O)CCCN)[C@@H](OCc2ccc(Cl)cc2)[C@@H]1O [Compound 13] | < 5.00 | < 5.00 | < 5.00 | 7.21 | 58% | -80% | pIC50 [5]: 6.32 |
| CO[C@H]1[C@H](O)[C@@H](COCc2ccc3ccccc3c2)OC(OCc2ccc(Cl)cc2)[C@@H]1NC(=O)C1CCCN(C(=N)N)C1 (stereo partly drawn) [Compound 14] | < 5.00 | 5.92 | < 5.00 | 6.26 | -95% | -90% | pKi [5]: 6.47 |
| COC[C@H]1O[C@H](OCCc2ccccc2)[C@H](NC(=O)CCCN)[C@@H](OCc2ccc3ccccc3c2)[C@@H]1O [Hydrochloride] |  |  |  |  |  |  | solubility at 3 day ([2]; 5% glucose, saline or isotonic, 5% Glucose, Day 3): 6300 µg/mL; Solubility in Water [2]: 7870 µg/mL |
| COC[C@H]1O[C@H](OCCc2ccccc2)[C@H](NC(=O)CCCN)[C@@H](OCc2ccc3ccccc3c2)[C@@H]1O [Methanesulphonate] |  |  |  |  |  |  | Solubility in Water [2]: 5170 µg/mL |
| COC[C@H]1O[C@H](OCCc2ccccc2)[C@H](NC(=O)CCCN)[C@@H](OCc2ccc3ccccc3c2)[C@@H]1O [Succinate] |  |  |  |  |  |  | Solubility in 5% Glucose ([2]; 5% Glucose, Day 3): 4980 µg/mL; Solubility in Water [2]: 8520 µg/mL |
| COC[C@H]1O[C@H](OCCc2ccccc2)[C@H](NC(=O)CCCN)[C@@H](OCc2ccc3ccccc3c2)[C@@H]1O [TFA] |  |  |  |  |  |  | Solubility in 5% Glucose ([2]; 5% Glucose, Day 3): 5270 µg/mL; Solubility in Water [2]: 3640 µg/mL |
